{"source": "ChEMBL document CHEMBL1201862", "about": "“PubChem BioAssay data set” (2004)", "key": {"[1]": {"assay": "cells", "format": "functional, cell-based", "settings": "HEK-CNG"}, "[2]": {"target": "E3 ubiquitin-protein ligase Mdm2 (Homo sapiens, UniProt Q00987)", "sequence (Q00987 whole entry)": "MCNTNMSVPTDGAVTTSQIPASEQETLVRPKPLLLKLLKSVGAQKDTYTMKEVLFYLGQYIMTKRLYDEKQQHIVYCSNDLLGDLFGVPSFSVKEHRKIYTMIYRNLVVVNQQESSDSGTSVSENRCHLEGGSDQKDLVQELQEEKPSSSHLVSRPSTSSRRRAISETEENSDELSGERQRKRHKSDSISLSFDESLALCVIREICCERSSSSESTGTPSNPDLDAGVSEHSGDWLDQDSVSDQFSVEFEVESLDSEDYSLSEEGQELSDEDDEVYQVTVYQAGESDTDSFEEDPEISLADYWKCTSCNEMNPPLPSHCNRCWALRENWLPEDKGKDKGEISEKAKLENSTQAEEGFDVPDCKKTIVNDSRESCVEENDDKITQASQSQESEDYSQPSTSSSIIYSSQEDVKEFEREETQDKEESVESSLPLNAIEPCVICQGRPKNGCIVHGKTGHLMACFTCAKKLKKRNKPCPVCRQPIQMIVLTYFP", "assay": "MDM2-luc reporter signal enhancers, multi-concentration potency testing, MDM2 ubiquitin-protein ligase inhibitor program, whole-cell format, luminescence detection, 384-well microplate (AID 1394);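 also: MDM2 E3 inhibitors raise luminescence so EC50 is for signal enhancement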", "format": "functional"}, "[3]": {"assay": "non-specific 3'UTR reporter inhibition in Clone20-Shn3RL – cell-based, Renilla luciferase, cherry-picked, counter-screen for Shn3 inhibitor project, dose response (AID 624133)", "format": "functional"}, "[4]": {"target": "G-protein coupled receptor 55 (Homo sapiens, UniProt Q9Y2T6)", "sequence (Q9Y2T6 whole entry)": "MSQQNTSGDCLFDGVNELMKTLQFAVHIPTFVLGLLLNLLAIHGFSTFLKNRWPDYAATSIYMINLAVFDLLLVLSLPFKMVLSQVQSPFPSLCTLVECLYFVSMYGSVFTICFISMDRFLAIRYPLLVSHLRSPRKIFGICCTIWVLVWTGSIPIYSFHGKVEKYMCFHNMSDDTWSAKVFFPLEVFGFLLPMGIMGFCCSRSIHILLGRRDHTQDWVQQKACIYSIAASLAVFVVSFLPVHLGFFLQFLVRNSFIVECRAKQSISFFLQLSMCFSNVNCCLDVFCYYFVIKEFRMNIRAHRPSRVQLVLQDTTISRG", "assay": "selective activators of receptor GPR55 – imaging, U2OS cells, beta-arrestin-GFP redistribution, primary screen (AID 1961)", "format": "functional"}, "[5]": {"assay": "reduction of Shn3 3'UTR-driven luciferase in osteoblasts – cell-based, Clone20 osteoblasts, firefly luciferase, cherry-picked, dose response (AID 624132)", "format": "functional"}, "[6]": {"target": "T1, Galanin receptor type 3 (Homo sapiens, UniProt O60755)", "T1 sequence (O60755 whole entry)": "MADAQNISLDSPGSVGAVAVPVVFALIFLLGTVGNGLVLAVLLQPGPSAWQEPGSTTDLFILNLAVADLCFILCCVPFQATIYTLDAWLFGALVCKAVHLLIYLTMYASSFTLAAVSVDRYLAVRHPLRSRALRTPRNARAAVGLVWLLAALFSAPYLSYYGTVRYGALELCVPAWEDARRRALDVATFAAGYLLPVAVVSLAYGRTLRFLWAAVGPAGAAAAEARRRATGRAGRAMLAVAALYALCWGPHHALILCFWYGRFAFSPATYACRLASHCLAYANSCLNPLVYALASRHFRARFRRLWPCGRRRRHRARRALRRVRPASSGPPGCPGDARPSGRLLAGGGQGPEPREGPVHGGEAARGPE", "assay": "Fluorescence-based cell-based primary high throughput dose response assay to identify antagonists of the Galanin Receptor 3 (GalR3).", "format": "functional"}, "[7]": {"target": "T2, NADPH oxidase 1 (Homo sapiens, UniProt Q9Y5S8)", "T2 sequence (Q9Y5S8 whole entry)": "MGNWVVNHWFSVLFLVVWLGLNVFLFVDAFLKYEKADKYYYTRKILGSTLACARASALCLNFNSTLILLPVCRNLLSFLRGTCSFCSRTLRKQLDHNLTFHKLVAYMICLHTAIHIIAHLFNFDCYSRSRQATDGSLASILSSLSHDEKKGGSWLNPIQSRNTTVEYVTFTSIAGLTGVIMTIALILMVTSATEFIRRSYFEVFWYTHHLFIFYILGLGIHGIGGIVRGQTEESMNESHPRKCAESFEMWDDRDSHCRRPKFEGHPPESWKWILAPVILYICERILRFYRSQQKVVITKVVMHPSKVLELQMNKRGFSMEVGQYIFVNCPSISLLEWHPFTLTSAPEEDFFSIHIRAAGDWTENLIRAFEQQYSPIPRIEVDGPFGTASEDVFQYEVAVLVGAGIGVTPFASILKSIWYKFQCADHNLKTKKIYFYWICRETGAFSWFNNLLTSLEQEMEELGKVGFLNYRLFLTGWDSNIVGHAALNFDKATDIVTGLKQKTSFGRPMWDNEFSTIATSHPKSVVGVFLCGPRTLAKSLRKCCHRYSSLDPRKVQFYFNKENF", "assay": "Late-stage luminescence-based cell-based dose response assay to identify inhibitors of NADPH oxidase 1 (NOX1): Synthesized analogs.", "format": "functional"}, "[8]": {"target": "Hepatocyte nuclear factor 4-alpha (Homo sapiens, UniProt P41235)", "sequence (P41235 whole entry)": "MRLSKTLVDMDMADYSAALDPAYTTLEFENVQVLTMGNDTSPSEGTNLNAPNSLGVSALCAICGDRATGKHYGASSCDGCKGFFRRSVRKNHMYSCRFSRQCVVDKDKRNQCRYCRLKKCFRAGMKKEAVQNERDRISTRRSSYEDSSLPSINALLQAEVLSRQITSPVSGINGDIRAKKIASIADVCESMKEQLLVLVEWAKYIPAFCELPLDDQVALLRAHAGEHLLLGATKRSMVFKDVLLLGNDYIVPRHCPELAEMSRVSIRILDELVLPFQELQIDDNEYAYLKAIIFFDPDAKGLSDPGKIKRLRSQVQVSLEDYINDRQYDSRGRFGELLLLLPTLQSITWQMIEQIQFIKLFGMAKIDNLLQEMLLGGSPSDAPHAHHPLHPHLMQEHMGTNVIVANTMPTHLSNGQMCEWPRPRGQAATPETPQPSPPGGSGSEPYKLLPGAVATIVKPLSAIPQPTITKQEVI", "format": "functional, cell-based"}, "[9]": {"target": "T3, Rac GTPase-activating protein 1 (Homo sapiens, UniProt Q9H0H5)", "T3 sequence (Q9H0H5 whole entry)": "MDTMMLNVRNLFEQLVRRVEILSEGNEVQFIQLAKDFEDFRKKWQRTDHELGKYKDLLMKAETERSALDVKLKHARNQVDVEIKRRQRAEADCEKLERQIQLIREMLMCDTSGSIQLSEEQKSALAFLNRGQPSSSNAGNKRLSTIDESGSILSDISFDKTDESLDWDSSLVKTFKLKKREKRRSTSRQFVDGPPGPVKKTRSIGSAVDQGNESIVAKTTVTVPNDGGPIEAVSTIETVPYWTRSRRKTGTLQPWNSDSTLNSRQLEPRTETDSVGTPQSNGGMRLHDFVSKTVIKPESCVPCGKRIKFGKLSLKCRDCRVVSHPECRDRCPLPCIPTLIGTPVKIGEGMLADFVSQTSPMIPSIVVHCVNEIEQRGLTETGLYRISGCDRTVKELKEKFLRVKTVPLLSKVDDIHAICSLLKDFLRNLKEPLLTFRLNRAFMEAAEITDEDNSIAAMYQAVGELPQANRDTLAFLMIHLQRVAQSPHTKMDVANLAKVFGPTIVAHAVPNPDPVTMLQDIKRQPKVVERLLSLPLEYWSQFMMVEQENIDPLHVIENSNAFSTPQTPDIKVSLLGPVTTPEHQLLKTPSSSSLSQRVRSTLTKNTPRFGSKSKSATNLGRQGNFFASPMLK", "assay": "blockers of MgcRacGAP-driven Rac1 GTP hydrolysis – biochemical, ADP Hunter fluorescence, primary and confirmatory, confirmation (AID 624330)", "format": "functional"}, "[10]": {"assay": "HIV-1 Vif–A3G interaction blockers – biochemical, TR-FRET, GST-Vif 1-94, biotin-A3G peptide, dose response retest, primary screen (AID 1117319);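 also: TR-FRET signal of purified GST-Vif binding a biotinylated A3G peptide; inhibitors lower the FRET signal by blocking Vif and A3G binding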", "format": "functional"}, "[11]": {"target": "T4, Leucine aminopeptidase (Plasmodium falciparum 3D7, UniProt Q8IL11)", "T4 sequence (Q8IL11 whole entry)": "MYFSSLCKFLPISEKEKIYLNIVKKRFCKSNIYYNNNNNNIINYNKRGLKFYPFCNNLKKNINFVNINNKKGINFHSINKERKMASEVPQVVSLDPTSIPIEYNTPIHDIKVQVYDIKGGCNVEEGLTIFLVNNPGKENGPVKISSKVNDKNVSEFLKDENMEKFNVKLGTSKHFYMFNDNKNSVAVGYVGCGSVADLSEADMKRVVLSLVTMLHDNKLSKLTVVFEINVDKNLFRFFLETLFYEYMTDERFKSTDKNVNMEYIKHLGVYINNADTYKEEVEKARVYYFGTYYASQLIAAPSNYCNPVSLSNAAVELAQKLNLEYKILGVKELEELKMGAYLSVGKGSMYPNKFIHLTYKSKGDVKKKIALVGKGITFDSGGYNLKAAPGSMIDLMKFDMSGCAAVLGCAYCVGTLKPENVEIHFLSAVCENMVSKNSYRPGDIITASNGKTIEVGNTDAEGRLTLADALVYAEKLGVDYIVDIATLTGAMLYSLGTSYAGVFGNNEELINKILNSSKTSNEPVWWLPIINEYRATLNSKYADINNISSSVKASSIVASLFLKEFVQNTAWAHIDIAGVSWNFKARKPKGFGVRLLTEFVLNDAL", "assay": "P. falciparum M17LAP inhibitors, primary screen, biochemical, fluorogenic H-Leu-NHMec substrate, 1536-well (AID 1619)", "format": "functional"}, "[12]": {"assay": "Potency on glucagon-like peptide 1 release, dose-response in NCI-H716 cell line, half maximal inhibitory concentration (AID 1117344)", "format": "functional, cell-based"}, "[13]": {"assay": "IC50 of insulin release inhibition, rat insulinoma INS-1E line, 5 mM glucose, cell-based (AID 1117331)", "format": "functional"}, "[14]": {"assay": "glucagon-like peptide-1 release potency in STC-1, concentration-response, half-maximal inhibitory concentration in the STC-1 line (AID 1117345)", "format": "functional, cell-based"}}, "note": "Calls of active or inactive are those of the source."}
{"compound": "COc1ccccc1-c1cc(C(F)(F)F)nc(S(=O)(=O)CCCC(=O)Nc2cccnc2Cl)n1", "values": [{"measurement": "EC50", "setting": "[1]", "value": "> 29.9 µM (inactive)"}, {"measurement": "EC50", "setting": "[2]", "value": "2 µM (not active)"}, {"measurement": "AC50", "setting": "[3]", "value": "13.1 µM (active)"}, {"measurement": "EC50", "setting": "[4]", "value": "2.94 µM (active)"}, {"measurement": "AC50", "setting": "[5]", "value": "10.6 µM (active)"}, {"measurement": "IC50", "setting": "[6]", "value": "> 29.9 µM (inactive)"}]}
{"compound": "C=CC(=O)N1c2ccccc2Sc2ccc(NC(=O)OCC)cc21", "values": [{"measurement": "IC50", "setting": "[7]", "value": "> 50 µM (not active)"}, {"measurement": "IC50", "setting": "[8]", "value": "12.2 µM (inactive)"}]}
{"compound": "COc1ccc2c(c1OC)C(=O)OC2CC(=O)c1ccc(O)c(O)c1", "note": "(centres undefined)", "values": [{"measurement": "IC50", "setting": "[9]", "value": "56.1 µM (active)"}, {"measurement": "IC50", "setting": "[10]", "value": "> 100 µM (active)"}, {"measurement": "IC50", "setting": "[11]", "value": "35.2 µM (active)"}]}
{"compound": "O=C(CBr)Nc1ccc(Cl)cc1C(=O)c1ccccc1F", "values": [{"measurement": "IC50", "setting": "[12]", "value": "> 40 µM (inactive)"}, {"measurement": "IC50", "setting": "[13]", "value": "> 33.3 µM (inactive)"}, {"measurement": "IC50", "setting": "[14]", "value": "> 40 µM (inactive)"}]}
